From PMC11480361, “Design of a Cereblon construct for crystallographic and biophysical studies of protein degraders” (Nature Communications, 2024)
Where “and” joins values, the source holds several entries; their conditions need not be identical. Equal values may be shown once.

Columns and labels:
CRBN^midi and BRD4^BD2 [1] = target: T1, CRBN^midi and BRD4^BD2 (Homo sapiens, UniProt O60885+Q96SW2, C287N/C343E/C78I/DEL188-248/G302D/I92V/INS187GSG/K116N/L342R/L423I/Q134E/R283W/T359I/V293S); assay: TR-FRET ternary complex formation with BRD4^BD2; assay type: binding; details: for TR-FRET signal: CRBNmidi, source data Fig. 3h, replicates
T1 construct: amino acids 41-187 followed by a Gly-Ser-Gly linker and amino acids 249-426; Human Brd4^BD2 (residues 333–460, UniProt ID: O60885); His6 (N); made in house; host or cells: E. coli BL21(DE3)
T1 sequence (Q96SW2 with tags, fused parts or gaps with the stated changes limits assumed, other chains not shown): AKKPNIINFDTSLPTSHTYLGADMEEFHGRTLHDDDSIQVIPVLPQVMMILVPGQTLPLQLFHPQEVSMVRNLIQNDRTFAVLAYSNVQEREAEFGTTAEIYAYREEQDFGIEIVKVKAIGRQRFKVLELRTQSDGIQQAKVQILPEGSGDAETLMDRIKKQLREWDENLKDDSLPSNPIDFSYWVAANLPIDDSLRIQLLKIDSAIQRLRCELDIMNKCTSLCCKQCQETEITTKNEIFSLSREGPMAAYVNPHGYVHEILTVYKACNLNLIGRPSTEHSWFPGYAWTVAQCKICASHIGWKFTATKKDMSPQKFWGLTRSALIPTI
Procedure: (§1) The mixture was incubated in the dark with gentle rocking for 1 hour before readout using a PHERAstar microplate reader (BMG Labtech) with Pherastar software (version 5.70 R5). All incubations were conducted at 20 °C. Data were fitted by non-linear regression (curve fit) using Prism software (GraphPad version 10). Experiments were conducted in triplicate and were the average of three repeats.

CRBN^TBD and BRD4^BD2 = test system: T2, CRBN^TBD and BRD4^BD2; assay: TR-FRET ternary complex formation with BRD4^BD2; assay type: binding, human; details: for TR-FRET signal: CRBNTBD, source data Fig. 3h, replicates
T2 construct: Human Brd4^BD2 (residues 333–460, UniProt ID: O60885); GST (cleaved yes); His6; His6 (N); made in house; host or cells: E. coli BL21(DE3)
Procedure: as §1

[2] = test system: T3, CRBN^ΔN:DDB1^ΔBPB and BRD4^BD2; assay: TR-FRET ternary complex formation with BRD4^BD2; assay type: binding, human; details: for TR-FRET signal: CRBNΔN-DDB1ΔBPB, source data Fig. 3h, replicates
T3 construct: a construct lacking the unstructured N-terminal region of CRBN (CRBN^ΔN:DDB1); Human Brd4^BD2 (residues 333–460, UniProt ID: O60885); His6 (N); purchased Selvita
Procedure: as §1

CRBN^midi = target: T4, CRBN^midi (Homo sapiens, UniProt Q96SW2, C287N/C343E/C78I/DEL188-248/G302D/I92V/INS187GSG/K116N/L342R/L423I/Q134E/R283W/T359I/V293S); assay: SPR, CRBN^midi on chip, binary; assay type: binding
T4 construct: amino acids 41-187 followed by a Gly-Ser-Gly linker and amino acids 249-426; His6 (N, cleaved yes); made in house; host or cells: E. coli BL21(DE3)
T4 sequence (Q96SW2 with tags, fused parts or gaps with the stated changes limits assumed): as the sequence (Q96SW2 with tags, fused parts or gaps with the stated changes limits assumed, other chains not shown) above
Procedure: All SPR measurements were carried out on a Biacore^TM 8 K (Cytiva, Biacore Insight Control Software version 5.0.18.22405). CRBN^midi was immobilized via a His6 tag on a NiHC 1500 M chip (XanTec) at 25 °C. The chip surface was prepared for ligand (CRBN^midi) capture as per manufacturer’s instructions, flowing 350 mM EDTA, followed by buffer, then loaded using 5 mM NiCl2 followed by buffer. For binary measurements CRBN^midi was diluted to 350 nM and flowed at 10 µL/min. for 420 s to capture a final bound response of 240 RUs. For […] measurements, 10 nM of CRBN^midi was flowed at 10 µl/min. for 420 s to capture a final bound response of approximately 10,000 RUs. The buffer for immobilization and all kinetic measurements was 50 mM Tris pH 8.0, 150 mM NaCl, 0.25 mM TCEP, 0.005% (v/v) Tween-20 and 2% (v/v) DMSO.
(§2) For ternary experiments the analyte was supplemented with 50 µM BRD4^BD2. Each concentration point was flowed independently at 50 µL/min. with an association time of 150 s followed by 500 s dissociation. All measurements were carried out at 20 °C.
(§3) Data was analyzed using Biacore^TM Insight Evaluation Software (version 4.0.8.20368). Raw sensograms were solvent corrected, followed by reference and blank subtraction. […] Alpha, a parameter indicative of cooperativity, was calculated by dividing binary KD by ternary KD.

CRBN^midi and BRD4^BD2 [3] = target: T1, CRBN^midi and BRD4^BD2; assay: SPR, CRBN^midi on chip, ternary (analyte with 50 µM BRD4^BD2); assay type: binding
Procedure: All SPR measurements were carried out on a Biacore^TM 8 K (Cytiva, Biacore Insight Control Software version 5.0.18.22405). […] The buffer for immobilization and all kinetic measurements was 50 mM Tris pH 8.0, 150 mM NaCl, 0.25 mM TCEP, 0.005% (v/v) Tween-20 and 2% (v/v) DMSO.
as §2, §3

[4] = CRBN^midi immobilization level 9581
[5] = CRBN^midi immobilization level 240

Cc1nnc2n1-c1ccc(-c3cnn(CCCCCCCN4CCC(c5cccc6c5CN(C5CCC(=O)NC5=O)C6=O)CC4)c3)cc1C(c1ccc(Cl)cc1)=NC21CC1 (centres unmarked) [CFT-1297]
maximal concentration of bell-shaped TR-FRET profile (CRBN^midi and BRD4^BD2 [1]; CRBN^midi, BRD4^BD2): 21 nM
TR-FRET signal (CRBN^midi and BRD4^BD2 [1]; CFT-1297 6.3657e-10 M): 120 and 116 and 105 and 148 and 130 and 152 and 174 and 158 and 167
TR-FRET signal (CRBN^midi and BRD4^BD2 [1]; CFT-1297 2.01156e-9 M): 347 and 363 (2×) and 394 and 412 and 387 and 420 (2×) and 430
TR-FRET signal (CRBN^midi and BRD4^BD2 [1]; CFT-1297 6.35653e-9 M): 931 and 924 and 913 and 954 and 948 and 945 and 981 and 982 and 990
TR-FRET signal (CRBN^midi and BRD4^BD2 [1]; CFT-1297 2.00866e-8 M): 1502 and 1521 and 1538 and 1551 and 1571 and 1561 and 1573 and 1559 and 1582
TR-FRET signal (CRBN^midi and BRD4^BD2 [1]; CFT-1297 6.34738e-8 M): 850 and 872 and 886 and 873 and 864 and 854 and 799 and 811 and 813
TR-FRET signal (CRBN^midi and BRD4^BD2 [1]; CFT-1297 2.00577e-7 M): 376 and 352 and 403 and 396 and 394 (2×) and 313 and 326 and 341
TR-FRET signal (CRBN^midi and BRD4^BD2 [1]; CFT-1297 6.33824e-7 M): 185 and 204 and 173 and 213 and 220 and 205 and 126 and 137 and 130
TR-FRET signal (CRBN^midi and BRD4^BD2 [1]; CFT-1297 2.00288e-6 M): 130 and 122 and 145 and 152 and 153 and 147 and 79 and 88 and 84
TR-FRET signal (CRBN^midi and BRD4^BD2 [1]; CFT-1297 6.32911e-6 M): 113 and 129 and 102 and 140 and 135 and 145 and 75 and 68 and 78
TR-FRET signal (CRBN^TBD and BRD4^BD2; CFT-1297 6.3657e-10 M): -100 and -96 and -91 and -28 and -32 and -31 and -4 and -7 and 0
TR-FRET signal (CRBN^TBD and BRD4^BD2; CFT-1297 2.01156e-9 M): 20 and 18 and 19 and 27 (2×) and 31 and 16 and 0 and 9
TR-FRET signal (CRBN^TBD and BRD4^BD2; CFT-1297 6.35653e-9 M): 17 and 14 and 10 and 42 and 47 and 37 and 20 and 23 and 11
TR-FRET signal (CRBN^TBD and BRD4^BD2; CFT-1297 2.00866e-8 M): 45 and 44 and 40 and 53 and 52 (2×) and 41 and 50
TR-FRET signal (CRBN^TBD and BRD4^BD2; CFT-1297 6.34738e-8 M): 117 and 115 and 122 and 101 and 103 and 107 and 98 and 97 and 102
TR-FRET signal (CRBN^TBD and BRD4^BD2; CFT-1297 2.00577e-7 M): 132 and 129 and 128 and 106 and 105 and 108 and 111 and 110
TR-FRET signal (CRBN^TBD and BRD4^BD2; CFT-1297 6.33824e-7 M): 109 and 104 and 106 and 98 and 78 and 100
TR-FRET signal (CRBN^TBD and BRD4^BD2; CFT-1297 2.00288e-6 M): 112 and 117 and 108 and 92 and 89 and 102 and 91 and 95 and 90
TR-FRET signal (CRBN^TBD and BRD4^BD2; CFT-1297 6.32911e-6 M): 131 (2×) and 129 and 112 and 107 and 117 and 110 and 105
ternary complex formation by TR-FRET (CRBN^TBD and BRD4^BD2; CRBN^TBD, BRD4^BD2): no significant ternary complex formation was detected
maximal concentration of bell-shaped TR-FRET profile ([2]; CRBN^ΔN:DDB1^ΔBPB, BRD4^BD2): 17 nM
TR-FRET signal ([2]; CFT-1297 6.3657e-10 M): 5 and -3 and 2 and 6 and 3 and 13 and 20
TR-FRET signal ([2]; CFT-1297 2.01156e-9 M): 73 and 94 and 64 and 70 and 78 and 68 and 83 and 85 and 77
TR-FRET signal ([2]; CFT-1297 6.35653e-9 M): 339 and 359 and 325 and 342 and 338 and 345 and 352 and 373 and 376
TR-FRET signal ([2]; CFT-1297 2.00866e-8 M): 756 and 794 and 735 and 761 and 799 and 801 and 763 and 726 and 762
TR-FRET signal ([2]; CFT-1297 6.34738e-8 M): 382 (2×) and 392 and 395 and 387 and 370 and 383 and 372 and 363
TR-FRET signal ([2]; CFT-1297 2.00577e-7 M): 131 and 143 and 127 and 140 and 124 and 132 and 129 and 147 and 119
TR-FRET signal ([2]; CFT-1297 6.33824e-7 M): 50 and 51 and 69 and 66 and 56 and 71 and 52 and 54 and 38
TR-FRET signal ([2]; CFT-1297 2.00288e-6 M): 14 and 4 and 16 and 27 and 34 and 33 and -10 and -1 and -13
TR-FRET signal ([2]; CFT-1297 6.32911e-6 M): 11 and 4 and 8 and 21 and 25 and 18 and 13 and 9 and 23
Experimental Rmax / Theoretical Rmax (CRBN^midi): 93%
Kd (CRBN^midi): 2100 nM
Experimental Rmax (CRBN^midi; [4]): 196
Theoretical Rmax (CRBN^midi; [4]): 211
Experimental Rmax / Theoretical Rmax (CRBN^midi and BRD4^BD2 [3]): 55%
cooperativity α (binary KD / ternary KD) (CRBN^midi and BRD4^BD2 [3]): 3
Experimental Rmax (CRBN^midi and BRD4^BD2 [3]; [5]): 56
Theoretical Rmax (CRBN^midi and BRD4^BD2 [3]; [5]): 101
